According to ChEMBL document CHEMBL1201862, “PubChem BioAssay data set” (2004):
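Cells were grown in 96-well plates and exposed to each compound for 48 hours at five concentrations; endpoints were interpolated linearly between bracketing concentrations, or set to the highest concentration if not reached. Here, GI50 denotes the concentration required for 50% inhibition of growth.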 Active and inactive are the calls of the source. Rule as the data show it: active = GI50 up to about 1.1 µM and inactive = higher.

Legend:
Experiment in all cases: NCI tumour cell line growth inhibition, 48 h
DU-145 = tested on: DU-145
U-251 = tested on: U-251
BT-549 = tested on: BT-549
OVCAR-3 = tested on: OVCAR-3
ACHN = tested on: ACHN
MCF7 = tested on: MCF7
MDA-MB-435 = tested on: MDA-MB-435
A498 = tested on: A498
SK-MEL-28 = tested on: SK-MEL-28
NCI-H23 = tested on: NCI-H23
SW-620 = tested on: SW-620
HT-29 = tested on: HT-29
NCI-H226 = tested on: NCI-H226
Malme-3M = tested on: Malme-3M
HOP-62 = tested on: HOP-62
SF-295 = tested on: SF-295
SF-539 = tested on: SF-539
SK-MEL-2 = tested on: SK-MEL-2
IGROV-1 = tested on: IGROV-1
UO-31 = tested on: UO-31

Measured: GI50

COc1ccc(NS(=O)(=O)c2ccc(NC(NC(=O)CC(C)C)(C(F)(F)F)C(F)(F)F)cc2)nn1
inactive: DU-145 > 100 µM | U-251 > 100 µM | BT-549 > 100 µM | OVCAR-3 > 100 µM | ACHN > 100 µM | MCF7 > 100 µM | MDA-MB-435 > 100 µM | A498 > 100 µM | SK-MEL-28 > 100 µM | NCI-H23 > 100 µM | SW-620 > 100 µM | HT-29 > 100 µM | NCI-H226 > 100 µM | Malme-3M > 100 µM | HOP-62 > 100 µM | SF-295 > 100 µM | SF-539 > 100 µM | SK-MEL-2 > 100 µM | IGROV-1 > 100 µM | UO-31 > 100 µM
